Assay [1] has as its system pulmonary artery endothelial cells. As to the kind of experiment: superoxide formation in endothelial cells (CMH spin trap, EPR). It is filed as cell-based, pigs. As to conditions: endothelial cells, peptide 20 μm, versus control peptide TAT. How it is done: To measure NO production, endothelial cells were incubated with ABS peptides for 3 h. Then ionomycin (2 μM) was added to the cells. After an additional 30 min, culture medium was collected and ethanol-precipitated to remove proteins. 50 μl of the reaction mix were loaded to the SIEVERS machine for NOx measurement as described above. For superoxide assay, after incubation with ABS peptides, the spin trap CMH was added to the cells. Superoxide from cells was trapped for 1 h, and then cells were scraped and subjected to EPR spectroscopy.

A further assay relates to eNOS. Description: eNOS catalytic activity (L-citrulline formation) in hyperoxic PAEC. The conditions noted are these: 95% oxygen 24 h. It is filed as cell-based, pigs. How it is done:
(§1) Third- to sixth-passage cells in monolayer culture were maintained in RPMI 1640 medium containing 4% fetal bovine serum and antibiotics (10 units/ml penicillin, 100 μg/ml streptomycin, 20 μg/ml gentamicin, and 2 μg/ml Fungizone) and were used 2 or 3 days after confluence.
(§2) The homogenates were centrifuged at 100,000 g for 60 min at 4° C., and the total membrane pellet was resuspended in buffer B (bufferAplus 2.5 mM CaCl2). The resulting suspension was used for determination of eNOS activity by monitoring the formation of L-[^3H]citrulline from L-[^3H]arginine (Su, Y., et al. (2003) Am. J. Physiol. Cell Physiol. 284, C1542-C1549). To determine NO production, thapsigargin (100 nM) was added to the medium of endothelial cells following normoxic or hyperoxic exposure. After 60 min of incubation, culture medium was collected and ethanol-precipitated to remove proteins. 50 μl of the reaction mix were loaded to the SIEVERS machine for NOx (NO2 and NO3) measurement according to standard manufacturer's instruction as previously described (Church, J E., et al. (2006) J. Biol. Chem. 281, 1477-1488). Protein contents in the cell lysates were determined by Lowry's method.
(§3) To reduce β-actin availability to eNOS, the β-actin mRNA was silenced using its siRNA as previously reported by us (Kondrikov, D., et al. (2006) Am. J. Physiol. Lung Cell Mol. Physiol. 290, L41-L50).

Assay [2] deals with pulmonary artery endothelial cells. As to the kind of experiment: endothelial monolayer wound repair. It is filed as cell-based, pigs. The conditions noted are these: P326TAT 20 μm. How it is done:
Pulmonary artery endothelial cells were incubated with ABS peptides for 3 h. Then endothelial monolayer wound repair in the absence and presence of PEG-SOD (100 units/ml) and NOC-18 (10 μm) was measured as previously reported (Su, Y., et al. (2006) FASEB J. 20, 1443-51). Endothelial monolayer wound repair distance was expressed as the width of the wound before treatment subtracted by that after treatment.

The test system is the same in assay [3]. Description: NO production in endothelial cells (NOx, SIEVERS). It is filed as cell-based, pigs. The conditions noted are these: peptide 20 μm 3 h, ionomycin 2 μM. Here is the method: After wild-type and eNOS mutant transfection, ionomycin (2 μm) was added to the cells. After 30 min of incubation, culture medium was collected and ethanol-precipitated to remove proteins. 50 μl of the reaction mix were loaded to the SIEVERS machine for NOx measurement according to standard manufacturer's instructions (Church, J. E., and Fulton, D. (2006) J. Biol. Chem. 281, 1477-88). In some experiments, N^G-nitro-1-arginine methyl ester (L-NAME), a specific eNOS inhibitor, was used to inhibit NO production. […] For superoxide assay, after incubation with ABS peptides, the spin trap CMH was added to the cells. Superoxide from cells was trapped for 1 h, and then cells were scraped and subjected to EPR spectroscopy as previously described (Sud, N., et al. (2008) Am. J. Physiol. Cell Physiol. 294, C1407-18). Protein contents in the cell lysates were determined by Lowry's method.
To measure NO production, endothelial cells were incubated with ABS peptides for 3 h. Then ionomycin (2 μM) was added to the cells. After an additional 30 min, culture medium was collected and ethanol-precipitated to remove proteins. 50 μl of the reaction mix were loaded to the SIEVERS machine for NOx measurement as described above. For superoxide assay, after incubation with ABS peptides, the spin trap CMH was added to the cells. […]

The test system of assay [4] is PAEC. As to the kind of experiment: peroxynitrite formation in hyperoxic PAEC (APF fluorescence). The conditions noted are these: 95% oxygen 24 h. It is filed as cell-based, pigs. Here is the method:
as §1, §3

Another assay has as its system eNOS-Hsp90 interaction. Description: eNOS-Hsp90 co-immunoprecipitation in endothelial cells. It is filed as cell-based, pigs. The conditions noted are these: versus control peptide TAT-transfected cells. How it is done: To rule out the possibility that the effect of P326TAT on eNOS activity in endothelial cells is caused by its effect on eNOS-Hsp90 interaction, eNOS-Hsp90 association was measured by co-immunoprecipitation using eNOS antibody.

The target in assay [5] is T1, eNOS-β-actin association (Sus scrofa, UniProt Q6QAQ1).
T1 construct: endogenous in cells; host or cells: porcine pulmonary artery endothelial cells (PAEC)
As to the kind of experiment: eNOS-β-actin co-immunoprecipitation in PAEC under normoxia or hyperoxia. It is filed as cell-based, pigs. Here is the method: as §1, §3

The target in assay [6] is T1, eNOS-β-actin association. Description: eNOS-β-actin co-immunoprecipitation in pulmonary artery endothelial cells. As to conditions: peptide 20 μm, 3 h. It is filed as cell-based, pigs. Here is the method:
Transfection of Endothelial Cells with ABS Peptides Pulmonary artery endothelial cells were incubated with ABS peptides at 20 μm final concentration in MEM medium. […] Cells were then incubated for another 2 h before being used for co-immunoprecipitation and eNOS activity assays.
Determination of eNOS-β-Actin Association, NO Production, and Superoxide Formation in Endothelial Cells eNOS-β-Actin association was evaluated using co-immunoprecipitation.
This TAT tag is a novel method used to facilitate delivery of biologically active proteins or peptides into cells and tissues through the fusion of a protein transduction domain to the protein or peptide of interest (Gustafsson, A. B., et al. (2002) Circulation 106, 735-39). To confirm the efficiency of P326TAT and control peptide TAT to enter endothelial cells, FITC-labeled P326TAT and FITC-labeled control peptide TAT were used. […] Endothelial cells were incubated with P326TAT and control peptide TAT for 3 h, and then eNOS-β-actin association was evaluated by co-immunoprecipitation using anti-eNOS antibody.

Assay [7] deals with PAEC. The conditions noted are these: peptide 20 μM, 95% oxygen 24 h. How it is done:
as §1

Assay [8] relates to PAEC. As to the kind of experiment: NO production in hyperoxic PAEC. It is filed as cell-based, pigs. The conditions noted are these: 95% oxygen 24 h. Here is the method:
as §1, §2, §3

As for RKKRRQRRRALGLRWYAL [P326TAT], in [1], the superoxide formation result is “much higher in P326TAT-transfected endothelial cells than control peptide TAT-transfected endothelial cells”. Besides, in the assay with eNOS, the “hyperoxia-induced increase in eNOS activity” value is given as “hyperoxic exposure did not induce an increase in eNOS activity”. Further, the “endothelial monolayer wound repair” value in assay [2] was “exhibited lower capacity of wound repair”. The NO production result in assay [3] was “significantly decreased NO production”. In addition, the “hyperoxia-induced increase in peroxynitrite formation” value in the assay with PAEC [4] is “prevented hyperoxiainduced increases in NO and peroxynitrite formation”. Also, the “eNOS-Hsp90 interaction (Hsp90 co-precipitated with eNOS)” value in the assay on eNOS-Hsp90 interaction was “did not affect eNOS-Hsp90 interaction”. In addition, the “hyperoxia-induced increase in β-actin co-immunoprecipitated with eNOS” value on eNOS-β-actin association [5] (95% oxygen 24 h) is given as “prevented hyperoxia-induced increase in eNOS-β-actin co-immunoprecipitation”. Moreover, the “amount of β-actin co-immunoprecipitated with eNOS” value on eNOS-β-actin association [5] (peptide 20 μM) and at eNOS-β-actin association [6] was “significantly decreased the amount of β-actin co-immunoprecipitated with eNOS” each time. Moreover, the “tyrosine nitration of proteins at 250, 100, 75, and 60 kDa, hyperoxia versus normoxia” value in the assay with PAEC [7] is “comparable between normoxia and hyperoxia”. Moreover, the “hyperoxia-induced increase in NO formation” value in the assay with PAEC [8] was “prevented hyperoxiainduced increases in NO and peroxynitrite formation”.

The values are drawn from patent publication US8435947B2, “Endothelial nitric oxide synthase antagonists and uses thereof for inhibiting oxygen toxicity” (Medical College of Georgia Research Institute, Inc., priority 2010, dated 2013).
